Assay results reported in patent publication US8252940B2, “5-substituted-2-imino-thiazolidinone compounds and their use as inhibitors of bacterial infection” (University of Washington, priority 2008, dated 2012).

System: type III secretion in S. typhimurium
Test: microbe, parasite or virus in culture
Assay type: cell-based, Salmonella enterica serovar Typhimurium
Details: for inhibition at 33 µM / inhibition at 330 µM / inhibition at 3.3 µM: read-out: % inhibition of SipA secretion; for % Secretion: type III secretion in S. typhimurium, SipA secretion by Western blot
[1] = Salmonella enterica, TYPHIMURIUM

For `COc1cc(/C=C2\S/C(=N\c3ccccc3)N(C(C(=O)N[C@@H](Cc3ccc(O)cc3)C(N)=O)C(C)C)C2=O)cc(OC)c1O` (single isomer, unassigned) [compound 69], which inhibition at 33 µM [1] is on record?
The inhibition at 33 µM was 32%.

And the inhibition at 330 µM [1]?
The inhibition at 330 µM was 97%.

`COc1cc(/C=C2\S/C(=N\c3ccccc3)N([C@@H](C)C(=O)N[C@@H](CCCNC(=N)N)C(N)=O)C2=O)cc(OC)c1O` [Compound 2] was tested. Which “SipA detected in the supernate” value (3.8 μM, Western blot) did it give?
The value was “minimal SipA was detected”.

What about the inhibition at 38 µM (Salmonella enterica, TYPHIMURIUM, read-out: inhibition of detectable secreted SipA) of the same compound?
The inhibition at 38 µM was 100%.

What about the “% Secretion” value of the same compound?
The value was 0 ± 0%.

How did the “% Secretion” value turn out when `COc1ccc(N2C(=O)/C(=C/c3cc(OC)c(O)c(OC)c3)S/C2=N\c2ccccc2)cc1` [Compound 3] was run?
The value was 0 ± 0%.

Which “% Secretion” value does the source give for `COc1cc(/C=C2\S/C(=N\c3ccccc3)NC2=O)cc(OC)c1O` [Compound 4] here?
Its value is 9 ± 6%.

`COc1cc(/C=C2\SC(=N)N(c3ccccc3)C2=O)cc(OC)c1O` [Compound 5] was tested. Which “% Secretion” value did it give?
The value was 81.2 ± 0%.

`COc1cc(/C=C2\SC(=N)NC2=O)cc(OC)c1O` [Compound 6] was tested. Which “% Secretion” value did it give?
Its value is 64 ± 4%.

How did the “% Secretion” value turn out when `O=C1/C(=C/c2ccccc2)S/C(=N\c2ccccc2)N1c1ccccc1` [Compound 7] was run?
Its value is 90 ± 2%.

How did the “% Secretion” value turn out when `O=C1CS/C(=N\c2ccccc2)N1c1ccccc1` [Compound 8] was run?
Its value is 62 ± 3%.

For `COc1cc(CC2SC(=N)NC2=O)cc(OC)c1O` (stereo not drawn) [Compound 9], which “% Secretion” value is on record?
The value was 72 ± 0%.

How did the inhibition at 3.3 µM [1] turn out when `COc1cc(/C=C2\S/C(=N\c3ccccc3)N(CCCCCCN)C2=O)cc(OC)c1O` [compound 45, (2Z,5Z)-3-(6-aminohexyl)-5-(4-hydroxy-3,5-dimethoxybenzylidene)-2-(phenylimino)-thiazolidin-4-one] was run?
Its inhibition at 3.3 µM is 12%.

What about the inhibition at 33 µM [1] of the same compound?
Its inhibition at 33 µM is 42%.

And the inhibition at 330 µM [1]?
Its inhibition at 330 µM is 95%.

Which results are given for `COc1cc(/C=C2\S/C(=N\c3ccc(CN)cc3)N(c3ccccc3)C2=O)cc(OC)c1O` [compound 46, (2Z,5Z)-2-(4-(aminomethyl)phenylimino)-5-(4-hydroxy-3,5-dimethoxybenzyldene)-3-phenylthiazolidin-4-one]?
% inhibition of SipA secretion (3.3 μM, Western blot): 7%; % inhibition of SipA secretion (33 μM, Western blot): 16%; % inhibition of SipA secretion (330 μM, Western blot): 85%

`COc1cc(/C=C2\S/C(=N\c3ccc(CN)cc3)N(c3ccccc3)C2=O)cc(OC)c1O` [compound 47, (2Z,5Z)-3-(4-(aminomethyl)phenylimino)-5-(4-hydroxy-3,5-dimethoxybenzyldene)-2-phenylthiazolidin-4-one] was tested. Which “% inhibition of SipA secretion” value (3.3 μM, Western blot) did it give?
Its value is 8%.

And the “% inhibition of SipA secretion” value (33 μM, Western blot)?
Its value is 35%.

And the “% inhibition of SipA secretion” value (330 μM, Western blot)?
The value was 100%.

How did the inhibition at 33 µM [1] turn out when `COc1cc(/C=C2\S/C(=N\c3ccccc3)N([C@@H](C)C(=O)N[C@@H](C)C(N)=O)C2=O)cc(OC)c1O` [compound 49, (S)-N-((S)-1-amino-1-oxopropan-2-yl)-2-((2Z,5Z)-5-(4-hydroxy-3,5-dimethoxybenzylidene)-4-oxo-2-(phenylimino)thiazolidin-3-yl)propanamide] was run?
Its inhibition at 33 µM is 26%.

And the inhibition at 330 µM [1]?
The inhibition at 330 µM was 94%.

Which inhibition at 330 µM [1] does the source give for `COc1cc(/C=C2\S/C(=N\c3ccccc3)N([C@@H](C)C(=O)N[C@@H](Cc3ccc(O)cc3)C(N)=O)C2=O)cc(OC)c1O` [compound 50, (S)-N-((S)-1-amino-3-(4-hydroxyphenyl)-1-oxopropan-2-yl)-2-((2Z,5Z)-5-(4-hydroxy-3,5-dimethoxybenzylidene)-4-oxo-2-(phenylimino)thiazolidin-3-yl)propanamide] here?
Its inhibition at 330 µM is 90%.

Which inhibition at 330 µM [1] does the source give for `COc1cc(/C=C2\S/C(=N\c3ccccc3)N(C(C)C(=O)N[C@@H](Cc3c[nH]c4ccccc34)C(N)=O)C2=O)cc(OC)c1O` (stereo partly drawn) [compound 51, N-((S)-1-amino-3-(1H-indol-3-yl)-1-oxopropan-2-yl)-2-((2Z,5Z)-5-(4-hydroxy-3,5-dimethoxybenzylidene)-4-oxo-2-(phenylimino)thiazolidin-3-yl)propanamide] here?
Its inhibition at 330 µM is 100%.

`COc1cc(/C=C2\S/C(=N\c3ccccc3)N([C@H](C)C(=O)N[C@@H](Cc3c[nH]c4ccccc34)C(N)=O)C2=O)cc(OC)c1O` [compound 52, (R)-N-((S)-1-amino-3-(1H-indol-3-yl)-1-oxopropan-2-yl)-2-((2Z,5Z)-5-(4-hydroxy-3,5-dimethoxybenzylidene)-4-oxo-2-(phenylimino)thiazolidin-3-yl)propanamide] was tested. Which inhibition at 330 µM [1] did it give?
Its inhibition at 330 µM is 100%.

For `COc1cc(/C=C2\S/C(=N\c3ccccc3)N([C@@H](C)C(=O)N[C@@H](CCCN)C(N)=O)C2=O)cc(OC)c1O` [compound 54, (S)-5-amino-2-((S)-2-((2Z,5Z)-5-(4-hydroxy-3,5-dimethoxybenzylidene)-4-oxo-2-(phenylimino)thiazolidin-3-yl)propanamido)pentanamide], which inhibition at 330 µM [1] is on record?
The inhibition at 330 µM was 94%.

`COc1cc(/C=C2\S/C(=N\c3ccccc3)N([C@@H](C)C(=O)N[C@@H](CCCNC(=N)N)C(N)=O)C2=O)cc(OC)c1O` [compound 56, (S)-5-Guanidino-2-((S)-2-((2Z,5Z)-5-(4-hydroxy-3,5-dimethoxybenzylidene)-4-oxo-2-(phenylimino)thiazolidin-3-yl)propanamido)pentanamide] was tested. Which inhibition at 33 µM [1] did it give?
Its inhibition at 33 µM is 1%.

And the inhibition at 330 µM [1]?
Its inhibition at 330 µM is 100%.

Which results are given for `COc1cc(/C=C2\S/C(=N\c3ccccc3)N(CC(=O)O)C2=O)cc(OC)c1O` [compound 57, 2-((2Z,5Z)-5-(4-hydroxy-3,5-dimethoxybenzylidene)-4-oxo-2-(phenylimino)thiazolidin-3-yl)acetic acid]?
inhibition at 3.3 µM [1]: 51%; inhibition at 330 µM [1]: 100%

`COc1cc(/C=C2\S/C(=N\c3ccccc3)N(CCCC(=O)OC(C)(C)C)C2=O)cc(OC)c1O` [compound 60, t-Butyl-4-((2Z,5Z)-5-(4-hydroxy-3,5-dimethoxybenzylidene)-4-oxo-2-(phenylimino)thiazolidin-3-yl)butanoate] was tested. Which inhibition at 3.3 µM [1] did it give?
Its inhibition at 3.3 µM is 35%.

And the inhibition at 330 µM [1]?
Its inhibition at 330 µM is 90%.

Which results are given for `COc1cc(/C=C2\S/C(=N\c3ccccc3)N(CCCC(=O)O)C2=O)cc(OC)c1O` [compound 61, 4-((2Z,5Z)-5-(4-hydroxy-3,5-dimethoxybenzylidene)-4-oxo-2-(phenylimino)thiazolidin-3-yl)butanoic acid]?
inhibition at 3.3 µM [1]: 70%; inhibition at 330 µM [1]: 74%

How did the inhibition at 3.3 µM [1] turn out when `COc1cc(/C=C2\S/C(=N\c3ccccc3)N([C@H](C)C(=O)N[C@@H](CCCN)C(N)=O)C2=O)cc(OC)c1O` [compound 84, (S)-5-amino-2-((R)-2-((2Z,5Z)-5-(4-hydroxy-3,5-dimethoxybenzylidene)-4-oxo-2-(phenylimino)thiazolidin-3-yl)propanamido)pentanamide] was run?
Its inhibition at 3.3 µM is 5%.

What about the inhibition at 330 µM [1] of the same compound?
Its inhibition at 330 µM is 99%.

`COc1cc(/C=C2\S/C(=N\c3ccccc3)N([C@H](C)C(=O)N[C@@H](CCCNC(=N)N)C(N)=O)C2=O)cc(OC)c1O` [compound 85, (S)-5-guanidino-2-((R)-2-((2Z,5Z)-5-(4-hydroxy-3,5-dimethoxybenzylidene)-4-oxo-2-(phenylimino)thiazolidin-3-yl)propanamido)pentanamide] was tested. Which inhibition at 33 µM [1] did it give?
Its inhibition at 33 µM is 31%.

What about the inhibition at 330 µM [1] of the same compound?
The inhibition at 330 µM was 99%.

`COc1cc(/C=C2\S/C(=N\c3ccccc3)N([C@@H](CCCN)C(=O)N[C@@H](C)C(N)=O)C2=O)cc(OC)c1O` [compound 86] was tested. Which “% inhibition of SipA secretion” value (3.3 μM, Western blot) did it give?
Its value is 19%.

What about the “% inhibition of SipA secretion” value (33 μM, Western blot) of the same compound?
The value was 46%.

What about the “% inhibition of SipA secretion” value (330 μM, Western blot) of the same compound?
Its value is 100%.

With `COc1cc(/C=C2\S/C(=N\c3ccccc3)N([C@@H](CCCNC(=N)N)C(=O)N[C@@H](C)C(N)=O)C2=O)cc(OC)c1O` [compound 87, (S)-N-((S)-1-amino-1-oxopropan-2-yl)-5-guanidino-2-((2Z,5Z)-5-(4-hydroxy-3,5-dimethoxybenzylidene)-4-oxo-2-(phenylimino)thiazolidin-3-yl)pentanamide] as the compound, how does the inhibition at 3.3 µM [1] read?
Its inhibition at 3.3 µM is 0%.

And the inhibition at 33 µM [1]?
The inhibition at 33 µM was 38%.

What about the inhibition at 330 µM [1] of the same compound?
The inhibition at 330 µM was 100%.
